Species on record: Rattus norvegicus
Test: Open TG-GATES - Regimen: Single
Type: toxicity, organism-based, Sprague-Dawley
Parameters: regimen Single, gender Male, age 6 weeks
Settings: in vivo, po, route gavage; for APTT / Bas / Eos / Fbg / Hb / Ht / Lym / MCH / MCHC / MCV / Mono / Neu / PT / Plat / RBC / Ret / WBC: tissue Blood; for KIDNEY_L / KIDNEY_R / KIDNEY_TOTAL: tissue Kidney; for LIVER: tissue Liver; for A/G / ALP / ALT / AST / BUN / CRE / Ca / Cl / DBIL / GLC / IP / K / LDH / Na / PL / RALB / TBIL / TC / TG / TP / gamma-GTP: tissue Plasma
[1] = 300 mg/kg, 3 h, dose level Middle
[2] = 300 mg/kg, 6 h, dose level Middle
[3] = 300 mg/kg, 9 h, dose level Middle
[4] = 300 mg/kg, 24 h, dose level Middle
[5] = 1000 mg/kg, 3 h, dose level High
[6] = 1000 mg/kg, 6 h, dose level High
[7] = 1000 mg/kg, 9 h, dose level High
[8] = 1000 mg/kg, 24 h, dose level High

O=C(N[C@H](CO)[C@H](O)c1ccc([N+](=O)[O-])cc1)C(Cl)Cl [CHLORAMPHENICOL]
TERMINAL_BW [1]: 221.3 g
APTT [1]: 16.6 s
Bas [1]: 0%
Eos [1]: 1%
Fbg [1]: 268.4 mg/dL
Hb [1]: 13.2 g/dL
Ht [1]: 39%
Lym [1]: 78.2%
MCH [1]: 21.8 pg
MCHC [1]: 33.9%
MCV [1]: 64.1 fL
Mono [1]: 3.2%
Neu [1]: 17.4%
PT [1]: 14.5 s
Plat [1]: 114 x10_4/uL
RBC [1]: 608.8 x10_4/ul
Ret [1]: 8.3%
WBC [1]: 71.3 x10_2/uL
KIDNEY_L [1]: 0.9 g
KIDNEY_R [1]: 0.9 g
KIDNEY_TOTAL [1]: 1.9 g
LIVER [1]: 9.8 g
A/G [1]: 0.9
ALP [1]: 1546.4 IU/L
ALT [1]: 41 IU/L
AST [1]: 76.6 IU/L
BUN [1]: 11 mg/dL
CRE [1]: 0.2 mg/dL
Ca [1]: 11.5 mg/dL
Cl [1]: 105.8 meq/L
DBIL [1]: 0.018 mg/dL
GLC [1]: 181.8 mg/dL
IP [1]: 9.1 mg/dL
K [1]: 4.1 meq/L
LDH [1]: 66.2 IU/L
Na [1]: 139.8 meq/L
PL [1]: 144.2 mg/dL
RALB [1]: 2.5 g/dL
TBIL [1]: 0.064 mg/dL
TC [1]: 76.6 mg/dL
TG [1]: 66 mg/dL
TP [1]: 5.5 g/dL
gamma-GTP [1]: 1.2 IU/L
TERMINAL_BW [2]: 221.3 g
APTT [2]: 17.6 s
Bas [2]: 0%
Eos [2]: 0.8%
Fbg [2]: 284 mg/dL
Hb [2]: 13.4 g/dL
Ht [2]: 42.8%
Lym [2]: 79.8%
MCH [2]: 21.7 pg
MCHC [2]: 31.3%
MCV [2]: 69.4 fL
Mono [2]: 2.6%
Neu [2]: 16.8%
PT [2]: 15 s
Plat [2]: 107.3 x10_4/uL
RBC [2]: 618.2 x10_4/ul
Ret [2]: 8.2%
WBC [2]: 68.7 x10_2/uL
KIDNEY_L [2]: 0.9 g
KIDNEY_R [2]: 1 g
KIDNEY_TOTAL [2]: 1.9 g
LIVER [2]: 8.8 g
A/G [2]: 0.9
ALP [2]: 1672 IU/L
ALT [2]: 40.8 IU/L
AST [2]: 72.2 IU/L
BUN [2]: 9.4 mg/dL
CRE [2]: 0.2 mg/dL
Ca [2]: 11.4 mg/dL
Cl [2]: 106 meq/L
DBIL [2]: 0.014 mg/dL
GLC [2]: 184.4 mg/dL
IP [2]: 9.8 mg/dL
K [2]: 4.4 meq/L
LDH [2]: 79 IU/L
Na [2]: 141 meq/L
PL [2]: 138.2 mg/dL
RALB [2]: 2.5 g/dL
TBIL [2]: 0.07 mg/dL
TC [2]: 76.6 mg/dL
TG [2]: 60 mg/dL
TP [2]: 5.4 g/dL
gamma-GTP [2]: 1 IU/L
TERMINAL_BW [3]: 221.3 g
APTT [3]: 16.4 s
Bas [3]: 0%
Eos [3]: 0.8%
Fbg [3]: 273.4 mg/dL
Hb [3]: 13.2 g/dL
Ht [3]: 42.2%
Lym [3]: 81.6%
MCH [3]: 20.5 pg
MCHC [3]: 31.4%
MCV [3]: 65.4 fL
Mono [3]: 1.8%
Neu [3]: 15%
PT [3]: 15.2 s
Plat [3]: 109.8 x10_4/uL
RBC [3]: 646.2 x10_4/ul
Ret [3]: 7.4%
WBC [3]: 55.9 x10_2/uL
KIDNEY_L [3]: 0.9 g
KIDNEY_R [3]: 0.9 g
KIDNEY_TOTAL [3]: 1.8 g
LIVER [3]: 8.3 g
A/G [3]: 0.9
ALP [3]: 1711.2 IU/L
ALT [3]: 34.6 IU/L
AST [3]: 70.2 IU/L
BUN [3]: 10.2 mg/dL
CRE [3]: 0.2 mg/dL
Ca [3]: 11.1 mg/dL
Cl [3]: 105 meq/L
DBIL [3]: 0.014 mg/dL
GLC [3]: 180.4 mg/dL
IP [3]: 10.2 mg/dL
K [3]: 4.5 meq/L
LDH [3]: 59.4 IU/L
Na [3]: 139.8 meq/L
PL [3]: 122 mg/dL
RALB [3]: 2.5 g/dL
TBIL [3]: 0.068 mg/dL
TC [3]: 67.8 mg/dL
TG [3]: 36 mg/dL
TP [3]: 5.3 g/dL
gamma-GTP [3]: 1.2 IU/L
TERMINAL_BW [4]: 227.9 g
APTT [4]: 18.8 s
Bas [4]: 0%
Eos [4]: 0.8%
Fbg [4]: 258.8 mg/dL
Hb [4]: 13.7 g/dL
Ht [4]: 42.4%
Lym [4]: 84.4%
MCH [4]: 21.7 pg
MCHC [4]: 32.1%
MCV [4]: 67.6 fL
Mono [4]: 2.8%
Neu [4]: 11.6%
PT [4]: 14.8 s
Plat [4]: 118.7 x10_4/uL
RBC [4]: 628.2 x10_4/ul
Ret [4]: 7.8%
WBC [4]: 66 x10_2/uL
KIDNEY_L [4]: 1 g
KIDNEY_R [4]: 1 g
KIDNEY_TOTAL [4]: 2 g
LIVER [4]: 9.4 g
A/G [4]: 0.9
ALP [4]: 1891.8 IU/L
ALT [4]: 48.2 IU/L
AST [4]: 76.6 IU/L
BUN [4]: 14.8 mg/dL
CRE [4]: 0.2 mg/dL
Ca [4]: 11.5 mg/dL
Cl [4]: 105.4 meq/L
DBIL [4]: 0.02 mg/dL
GLC [4]: 190.4 mg/dL
IP [4]: 8.8 mg/dL
K [4]: 4.5 meq/L
LDH [4]: 65 IU/L
Na [4]: 141.6 meq/L
PL [4]: 157.6 mg/dL
RALB [4]: 2.5 g/dL
TBIL [4]: 0.062 mg/dL
TC [4]: 86 mg/dL
TG [4]: 81 mg/dL
TP [4]: 5.5 g/dL
gamma-GTP [4]: 1 IU/L
TERMINAL_BW [5]: 221.6 g
APTT [5]: 17.1 s
Bas [5]: 0%
Eos [5]: 1%
Fbg [5]: 263.6 mg/dL
Hb [5]: 13.5 g/dL
Ht [5]: 39.6%
Lym [5]: 73%
MCH [5]: 21.7 pg
MCHC [5]: 34.2%
MCV [5]: 63.7 fL
Mono [5]: 3.8%
Neu [5]: 21.8%
PT [5]: 14.9 s
Plat [5]: 112.6 x10_4/uL
RBC [5]: 622.4 x10_4/ul
Ret [5]: 7.8%
WBC [5]: 76.3 x10_2/uL
KIDNEY_L [5]: 1 g
KIDNEY_R [5]: 1 g
KIDNEY_TOTAL [5]: 2 g
LIVER [5]: 9.5 g
A/G [5]: 0.9
ALP [5]: 1586 IU/L
ALT [5]: 42 IU/L
AST [5]: 78.4 IU/L
BUN [5]: 8.4 mg/dL
CRE [5]: 0.2 mg/dL
Ca [5]: 10.9 mg/dL
Cl [5]: 106.6 meq/L
DBIL [5]: 0.012 mg/dL
GLC [5]: 182.4 mg/dL
IP [5]: 9 mg/dL
K [5]: 4.2 meq/L
LDH [5]: 56.4 IU/L
Na [5]: 140 meq/L
PL [5]: 137.2 mg/dL
RALB [5]: 2.6 g/dL
TBIL [5]: 0.064 mg/dL
TC [5]: 70.4 mg/dL
TG [5]: 63 mg/dL
TP [5]: 5.5 g/dL
gamma-GTP [5]: 1 IU/L
TERMINAL_BW [6]: 221.4 g
APTT [6]: 16.8 s
Bas [6]: 0%
Eos [6]: 1%
Fbg [6]: 278.4 mg/dL
Hb [6]: 13.9 g/dL
Ht [6]: 45.6%
Lym [6]: 73.8%
MCH [6]: 21.1 pg
MCHC [6]: 30.4%
MCV [6]: 69.3 fL
Mono [6]: 2%
Neu [6]: 23.2%
PT [6]: 15 s
Plat [6]: 113 x10_4/uL
RBC [6]: 657.2 x10_4/ul
Ret [6]: 7.7%
WBC [6]: 59.5 x10_2/uL
KIDNEY_L [6]: 0.9 g
KIDNEY_R [6]: 0.9 g
KIDNEY_TOTAL [6]: 1.8 g
LIVER [6]: 8.5 g
A/G [6]: 0.9
ALP [6]: 1369 IU/L
ALT [6]: 33.2 IU/L
AST [6]: 69 IU/L
BUN [6]: 7.8 mg/dL
CRE [6]: 0.2 mg/dL
Ca [6]: 11.1 mg/dL
Cl [6]: 107 meq/L
DBIL [6]: 0.01 mg/dL
GLC [6]: 186.2 mg/dL
IP [6]: 10.3 mg/dL
K [6]: 4.1 meq/L
LDH [6]: 57.6 IU/L
Na [6]: 141.4 meq/L
PL [6]: 128.2 mg/dL
RALB [6]: 2.6 g/dL
TBIL [6]: 0.072 mg/dL
TC [6]: 70 mg/dL
TG [6]: 26.2 mg/dL
TP [6]: 5.5 g/dL
gamma-GTP [6]: 1 IU/L
TERMINAL_BW [7]: 221.1 g
APTT [7]: 17 s
Bas [7]: 0%
Eos [7]: 0.8%
Fbg [7]: 281.4 mg/dL
Hb [7]: 13.8 g/dL
Ht [7]: 44%
Lym [7]: 80.2%
MCH [7]: 21.4 pg
MCHC [7]: 31.4%
MCV [7]: 68.2 fL
Mono [7]: 1.6%
Neu [7]: 17.8%
PT [7]: 15.6 s
Plat [7]: 107.2 x10_4/uL
RBC [7]: 644.8 x10_4/ul
Ret [7]: 7.5%
WBC [7]: 53.4 x10_2/uL
KIDNEY_L [7]: 0.9 g
KIDNEY_R [7]: 0.9 g
KIDNEY_TOTAL [7]: 1.8 g
LIVER [7]: 8.5 g
A/G [7]: 0.9
ALP [7]: 1491.8 IU/L
ALT [7]: 30 IU/L
AST [7]: 68 IU/L
BUN [7]: 8.2 mg/dL
CRE [7]: 0.2 mg/dL
Ca [7]: 10.9 mg/dL
Cl [7]: 105.4 meq/L
DBIL [7]: 0.018 mg/dL
GLC [7]: 176.6 mg/dL
IP [7]: 10.6 mg/dL
K [7]: 4.2 meq/L
LDH [7]: 69.6 IU/L
Na [7]: 140 meq/L
PL [7]: 125.8 mg/dL
RALB [7]: 2.5 g/dL
TBIL [7]: 0.074 mg/dL
TC [7]: 66.6 mg/dL
TG [7]: 44 mg/dL
TP [7]: 5.5 g/dL
gamma-GTP [7]: 1 IU/L
TERMINAL_BW [8]: 222.4 g
APTT [8]: 16.6 s
Bas [8]: 0%
Eos [8]: 0.8%
Fbg [8]: 255.8 mg/dL
Hb [8]: 14.2 g/dL
Ht [8]: 44.2%
Lym [8]: 83%
MCH [8]: 21.3 pg
MCHC [8]: 32.1%
MCV [8]: 66.4 fL
Mono [8]: 4%
Neu [8]: 11.6%
PT [8]: 15.7 s
Plat [8]: 121.3 x10_4/uL
RBC [8]: 665 x10_4/ul
Ret [8]: 6.3%
WBC [8]: 54.2 x10_2/uL
KIDNEY_L [8]: 0.9 g
KIDNEY_R [8]: 0.9 g
KIDNEY_TOTAL [8]: 1.9 g
LIVER [8]: 9.4 g
A/G [8]: 0.9
ALP [8]: 1571.8 IU/L
ALT [8]: 45.8 IU/L
AST [8]: 79.2 IU/L
BUN [8]: 14.4 mg/dL
CRE [8]: 0.2 mg/dL
Ca [8]: 11.6 mg/dL
Cl [8]: 106.8 meq/L
DBIL [8]: 0.016 mg/dL
GLC [8]: 184.8 mg/dL
IP [8]: 9.1 mg/dL
K [8]: 4.1 meq/L
LDH [8]: 64 IU/L
Na [8]: 142.2 meq/L
PL [8]: 122.4 mg/dL
RALB [8]: 2.6 g/dL
TBIL [8]: 0.068 mg/dL
TC [8]: 65.2 mg/dL
TG [8]: 50.8 mg/dL
TP [8]: 5.6 g/dL
gamma-GTP [8]: 1 IU/L
